US11919901B2 (Syndax Pharmaceuticals, Inc., priority 2021, dated 2024)

Target: Menin-MLL (Homo sapiens (Human), UniProt O00255)
Experiment: Determination of binding constants (Ki) to Menin-MLL (HTRF)
Conditions: HTRF; 0.25 nM H-FL-Menin, 3.2 nM FITC-MLL-4-43, 24 hr incubation; read-out: Menin-MLL Ki HTRF Assay: Ki

Sequence of Menin-MLL (O00255 whole entry): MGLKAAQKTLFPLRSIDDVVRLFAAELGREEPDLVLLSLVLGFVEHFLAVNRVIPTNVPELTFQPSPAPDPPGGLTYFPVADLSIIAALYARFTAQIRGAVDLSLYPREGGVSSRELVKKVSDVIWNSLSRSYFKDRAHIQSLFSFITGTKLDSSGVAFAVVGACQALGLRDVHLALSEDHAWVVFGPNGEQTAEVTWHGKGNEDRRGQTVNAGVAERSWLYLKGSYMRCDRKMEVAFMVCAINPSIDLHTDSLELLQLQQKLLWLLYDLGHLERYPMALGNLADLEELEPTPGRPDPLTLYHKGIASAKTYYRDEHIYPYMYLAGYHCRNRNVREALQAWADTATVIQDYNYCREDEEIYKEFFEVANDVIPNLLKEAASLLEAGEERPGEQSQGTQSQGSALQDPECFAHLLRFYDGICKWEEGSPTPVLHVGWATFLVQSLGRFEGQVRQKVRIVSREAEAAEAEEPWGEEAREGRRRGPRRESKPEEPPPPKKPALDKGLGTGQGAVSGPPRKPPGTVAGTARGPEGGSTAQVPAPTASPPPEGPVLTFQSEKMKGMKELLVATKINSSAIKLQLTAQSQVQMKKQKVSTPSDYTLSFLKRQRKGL

| Compound | Ki [nM] |
| --- | --- |
| CC(C)N(C(=O)c1cc(F)ccc1Oc1cncnc1N1CC2(CCN(C[C@@H]3CC[C@@H](NS(=O)(=O)C(C)C)CO3)CC2)C1)[C@H]1CCOC1 [Compound 174, 5-Fluoro-N-isopropyl-2-((4-(7-(((2S,5R)-5-((1-methylethyl)sulfonamido)tetrahydro-2H-pyran-2-yl)methyl)-2,7-diazaspiro[3.5]nonan-2-yl)pyrimidin-5-yl)oxy)-N-((S)-tetrahydrofuran-3-yl)benzamide] | < 1 |
| CC(C)N(C(=O)c1cc(F)ccc1Oc1cncnc1N1CC2(CCN(C[C@@H]3CC[C@@H](NS(=O)(=O)N4CCCC4)CO3)CC2)C1)[C@H]1CCOC1 [Compound 178, 5-Fluoro-N-isopropyl-2-((4-(7-(((2S,5R)-5-(pyrrolidine-1-sulfonamido)tetrahydro-2H-pyran-2-yl)methyl)-2,7-diazaspiro[3.5]nonan-2-yl)pyrimidin-5-yl)oxy)-N-((S)-tetrahydrofuran-3-yl)benzamide] | < 1 |
| CCN(C)S(=O)(=O)N[C@@H]1CC[C@@H](CN2CCC3(CC2)CN(c2ncncc2Oc2ccc(F)cc2C(=O)N(C(C)C)[C@H]2CCOC2)C3)OC1 [Compound 179, 2-((4-(7-(((2S,5R)-5-((N-Ethyl-N-methylsulfamoyl)amino)tetrahydro-2H-pyran-2-yl)methyl)-2,7-diazaspiro[3.5]nonan-2-yl)pyrimidin-5-yl)oxy)-5-fluoro-N-isopropyl-N-((S)-tetrahydrofuran-3-yl)benzamide] | < 1 |
| CCNS(=O)(=O)N[C@@H]1CC[C@@H](CN2CCC3(CC2)CN(c2ncncc2Oc2ccc(F)cc2C(=O)N(C(C)C)[C@H]2CCOC2)C3)OC1 [Compound 180, 2-((4-(7-(((2S,5R)-5-((N-Ethylsulfamoyl)amino)tetrahydro-2H-pyran-2-yl)methyl)-2,7-diazaspiro[3.5]nonan-2-yl)pyrimidin-5-yl)oxy)-5-fluoro-N-isopropyl-N-((S)-tetrahydrofuran-3-yl)benzamide] | < 1 |
| CC(C)N(CCC#N)C(=O)c1cc(F)ccc1Oc1cncnc1N1CC2(CCN(C[C@@H]3CC[C@@H](NS(=O)(=O)N4CCC4)CO3)CC2)C1 [Compound 184, 2-((4-(7-(((2S,5R)-5-(Azetidine-1-sulfonamido)tetrahydro-2H-pyran-2-yl)methyl)-2,7-diazaspiro[3.5]nonan-2-yl)pyrimidin-5-yl)oxy)-N-(2-cyanoethyl)-5-fluoro-N-isopropylbenzamide] | < 1 |
| CCS(=O)(=O)N[C@@H]1CC[C@@H](CN2CCC3(CC2)CN(c2ncnnc2Oc2ccc(F)cc2C(=O)N(CC(F)F)C(C)C)C3)OC1 [Compound 185, N-(2,2-Difluoroethyl)-2-((5-(7-(((2S,5R)-5-(ethylsulfonamido)tetrahydro-2H-pyran-2-yl)methyl)-2,7-diazaspiro[3.5]nonan-2-yl)-1,2,4-triazin-6-yl)oxy)-5-fluoro-N-isopropylbenzamide] | < 1 |
| CC(C)N(CC(F)F)C(=O)c1cc(F)ccc1Oc1nncnc1N1CC2(CCN(C[C@@H]3CC[C@@H](NS(=O)(=O)C4CC4)CO3)CC2)C1 [Compound 186, 2-((5-(7-(((2S,5R)-5-(Cyclopropanesulfonamido)tetrahydro-2H-pyran-2-yl)methyl)-2,7-diazaspiro[3.5]nonan-2-yl)-1,2,4-triazin-6-yl)oxy)-N-(2,2-difluoroethyl)-5-fluoro-N-isopropylbenzamide] | < 1 |
| CC(C)N(CC(F)F)C(=O)c1cc(F)ccc1Oc1nncnc1N1CC2(CCN(C[C@@H]3CC[C@@H](NS(=O)(=O)c4cnn(C)c4)CO3)CC2)C1 [Compound 187, N-(2,2-Difluoroethyl)-5-fluoro-N-isopropyl-2-((5-(7-(((2S,5R)-5-((1-methyl-1H-pyrazole)-4-sulfonamido)tetrahydro-2H-pyran-2-yl)methyl)-2,7-diazaspiro[3.5]nonan-2-yl)-1,2,4-triazin-6-yl)oxy)benzamide] | < 1 |
